In patent US20240218330A1, “COMPOSITIONS FOR IMPROVING THE TRANSDUCTION OF CELLS BY VIRAL VECTORS” (Ospedale San Raffaele S.r.l., priority 2021, published 2024):

Tested on: unstimulated hHSPC
Test: lentiviral vector (LV) transduction of unstimulated HSPC, % GFP+ cells by flow cytometry
Format: cell-based, human
Conditions: for LV transduction of unstimulated hHSPC vs DMSO control: FIG. 6D-E; for effect on transduction efficiency of quiescent HSPC: in presence of CsH, 4 h pre-exposure to single nucleoside or purine/pyrimidine mix, vs CsH only control, FIG. 3A-D
Procedure: Cyclosporine H (Sigma-Aldrich) was resuspended and stored following the manufacturer's instructions. Where indicated CsH was added to the transduction medium at 8 μM concentration and washed out with the vector 16-20 hours later. dNTPs (NEB N1201AA) were added to the transduction medium where indicated at 10 uM concentration and washed out with the vector 16-20 hours later. dA (D8668), dC (D0776), dG (D0901) and dT (T1895) were all purchased from Sigma-Aldrich and resuspended and stored following the manufacturer's instructions. dNs mix, single dNs or combinations of dNs (500-1000 μM each) were added to the culture media 4 h-2 h before transduction and washed out with the vector 16-20 hours later. For dosage experiment 25 μM to 1000 μM concentrations of each dN was tested.
All cells were transduced at the indicated multiplicity of infection (MOI) as calculated by titration of vector stocks on 293T cells and expressed as transducing units (TU)/293T cell. For transduction, CB-derived HSPC were cultured in serum-free StemSpan medium supplemented with penicillin (100 IU/ml), streptomycin ([…]), 100 ng/ml recombinant human stem cell factor (rhSCF), 20 ng/ml recombinant human thrombopoietin (rhTPO), 100 ng/ml recombinant human Flt3 ligand (rhFlt3), and 20 ng/ml recombinant human IL6 (rhIL6) (all from Peprotech) 16 to 24 hours prior to transduction. Bone marrow and G-CSF mobilized peripheral blood CD34+ cells were cultured in CellGro medium (Cell Genix) supplemented with penicillin (100 IU/ml), streptomycin ([…]) and a cocktail of cytokines: 60 ng/ml IL-3, 100 ng/ml TPO, 300 ng/ml SCF, and 300 ng/ml FLT-3L (all from Cell Peprotech). HSPC were then transduced at a concentration of 1×10^6 cells per milliliter with the vector for 16 hours at the indicated multiplicity of infection (MOI), expressed as transducing units (TU)/293T cell, in the same medium. After transduction cells were washed and maintained in serum-free medium supplemented with cytokines as above until the reading of the percentage of positive cells by FACS, after which they were maintained in IMDM supplemented with 10% FBS, 25 ng/ml rhSCF, 5 ng/ml rhIL6-3, 25 ng/ml rhFlt3 and 5 ng/ml rhTPO. Unstimulated HSPC were transduced freshly isolated in StemSpan or CellGro medium supplemented with penicillin (100 IU/ml), streptomycin ([…]) for 16-24 hours and then maintained in presence of human cytokines and […] of the reverse-transcriptase inhibitor 3TC (from SIGMA) to avoid subsequent transduction due to cytokines stimulation. Unstimulated murine Lin-HSPC were transduced freshly isolated in serum-free StemSpan medium (StemCell Technologies) containing penicillin, streptomycin and glutamine at a concentration of 1×10^6 cells/ml for 16-20 hours and then maintained in presence of a combination of murine cytokines (20 ng/ml IL-3, 100 ng/ml SCF, 100 ng/ml Flt-3L, 50 ng/ml TPO all from Peprotech). MDM were transduced 7-10 days after differentiation. Activated T lymphocytes were transduced at a concentration of 10^6 cells/ml, after 3 days of stimulation with Dynabeads human T-activator CD3/CD28. Total CD14^− PBMC were transduced fresh at a concentration of 10^6 cells/ml for measurement of transduction.
GFP expression in transduced cells was measured 3-5 days post-transduction. Adherent MDM were detached by Tripsin-EDTA, washed and resuspended in PBS containing 2% fetal bovine serum (FBS). Cells grown in suspension were washed and resuspended in PBS containing 2% FBS. To measure HSPC subpopulation composition cells were harvested and incubated with anti-human receptor blocking antibodies for 15 min at 4° C. and then stained for 20 min at 4° C. with anti-human CD34 (RRID:AB_10827793), CD133 (RRID:AB_244346), CD90 (RRID:AB_559869) antibodies. […]

[1] = 7.5 μM Orotic Acid or 1 mM UMP alone, similarly to dNs alone
[2] = 7.5 μM Orotic Acid or 1 mM UMP combined with 8 μM CsH

Row | SMILES | LV transduction of unstimulated hHSPC vs DMSO control [1] | LV transduction of unstimulated hHSPC vs DMSO control [2] | effect on transduction efficiency of quiescent HSPC
1 | O=c1ccn([C@@H]2O[C@H](COP(=O)(O)O)[C@@H](O)[C@H]2O)c(=O)[nH]1 [UMP, uridine 5′-monophosphate] | increase in LV transduction | further significantly increased | –
2 | Nc1ccn([C@H]2C[C@H](O)[C@@H](CO)O2)c(=O)n1 [dC, Deoxycytidine] | – | – | gene marking levels comparable to the combination of all dNs
3 | O=C(O)c1cc(=O)[nH]c(=O)[nH]1 [OA, orotic acid] | increase in LV transduction | further significantly increased | –
4 | Nc1nc2c(ncn2[C@H]2C[C@H](O)[C@@H](CO)O2)c(=O)[nH]1 [dG, Deoxyguanosine] | – | – | did not observe any effect
5 | Nc1ncnc2c1ncn2[C@H]1C[C@H](O)[C@@H](CO)O1 [dA, Deoxyadenosine] | – | – | did not observe any effect
